Measurements: the supplement of paper PMC11061612

What was measured:
[1] = system: C2BBe1 (Colorectal Carcinoma); assay: combination Emax (second highest fraction inhibited in the dose matrix, 72 h); higher = more inhibition; extreme values may be limits of the assay
Method in brief: (§1)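 Bliss excess equals the observed combination effect minus the expected value EA + EB − EA·EB, where EA and EB are the effects of each agent alone. Combination Emax is the second-highest inhibition within the matrix. Inhibition was scaled from CellTiter-Glo 2.0 luminescence, with 0 set by vehicle wells and 1 by blank wells, after 72 hours of two-drug dosing of cells plated in 1536-well plates.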

[2] = system: JJN-3 (Plasma Cell Myeloma); assay: as above
Method in brief: as §1

[3] = system: JURL-MK1 (Chronic Myelogenous Leukemia); assay: as above
Method in brief: as §1

SK-MEL-24 (Melanoma) [4] = assay: as above
Method in brief: as §1

[5] = system: NTERA-2-cl-D1 (Other Solid Carcinomas); assay: as above
Method in brief: as §1

[6] = system: SW1463 (Colorectal Carcinoma); assay: as above
Method in brief: as §1

[7] = system: OVKATE (Ovarian Carcinoma); assay: as above
Method in brief: as §1

HT-144 (Melanoma) = assay: as above
Method in brief: as §1

[8] = system: Daudi (Burkitt's Lymphoma); assay: Bliss excess, mean over the matrix (fraction); higher = more synergy
Method in brief: as §1

SK-MEL-24 (Melanoma) [9] = assay: as above
Method in brief: as §1

[10] = system: SBC-3 (Small Cell Lung Carcinoma); assay: as above
Method in brief: as §1

[11] = system: NCI-H1648 (Lung Adenocarcinoma); assay: as above
Method in brief: as §1

[12] = system: RS4-11 (B-Lymphoblastic Leukemia); assay: as above
Method in brief: as §1

[13] = system: RPMI-8402 (T-Lymphoblastic Leukemia); assay: as above
Method in brief: as §1

C32 (Melanoma) = assay: as above
Method in brief: as §1

SK-N-DZ (Neuroblastoma) = assay: as above
Method in brief: as §1

[14] = system: NCI-H2023 (Non-Small Cell Lung Carcinoma); assay: as above
Method in brief: as §1

[15] = system: NCI-H1435 (Non-Small Cell Lung Carcinoma); assay: as above
Method in brief: as §1

[16] = system: OVKATE (Ovarian Carcinoma); assay: as above
Method in brief: as §1

[17] = system: NCI-H1944 (Lung Adenocarcinoma); assay: as above
Method in brief: as §1

Structure (SMILES) | combination Emax [1] | combination Emax [2] | combination Emax [3] | combination Emax (SK-MEL-24 (Melanoma) [4]) | combination Emax [5] | combination Emax [6] | combination Emax [7] | combination Emax (HT-144 (Melanoma)) | Bliss excess [8] | Bliss excess (SK-MEL-24 (Melanoma) [9]) | Bliss excess [10] | Bliss excess [11] | Bliss excess [12] | Bliss excess [13] | Bliss excess (C32 (Melanoma)) | Bliss excess (SK-N-DZ (Neuroblastoma)) | Bliss excess [14] | Bliss excess [15] | Bliss excess [16] | Bliss excess [17]
COc1nnc2ccc(N3CCC(c4ccc(OCCN5CCN(C)C(=O)[C@H]5C)cc4)CC3)nn12 [AZD5153] + CCN(CCO)CCCOc1ccc2c(Nc3cc(CC(=O)Nc4cccc(F)c4)[nH]n3)ncnc2c1 [AZD2811] (first compound max 1 µM, 7x7, partner max 1 µM) | 0.558 | 0.876 | 0.898 | 0.528 | 0.68 | 0.563 | 0.263 | 0.48 | 0.0303 | -0.102 | -0.0225 | -0.0494 | -0.0195 | -0.031 | 0.0199 | -0.0722 | -0.0248 | 0.0052 | -0.0668 | -0.0185
COc1nnc2ccc(N3CCC(c4ccc(OCCN5CCN(C)C(=O)[C@H]5C)cc4)CC3)nn12 [AZD5153] + C[C@@H]1COCCN1C2=NC(=NC(=C2)C3(CC3)[S@](=N)(=O)C)C4=C5C=CNC5=NC=C4 [AZD6738] (first compound max 1 µM, 7x7, partner max 10 µM) | 0.579 | 0.964 | 0.998 | 0.636 | 0.832 | 0.555 | 0.324 | 0.713 | 0.0365 | -0.0037 | -0.032 | -0.0572 | 0.0145 | -0.0209 | 0.0069 | 0.0472 | 0.0692 | 0.0222 | -0.0027 | 0.0234
COc1nnc2ccc(N3CCC(c4ccc(OCCN5CCN(C)C(=O)[C@H]5C)cc4)CC3)nn12 [AZD5153] + Cc1c2c(nn1C)CSCc1cc(n(C)n1)CSc1cc(c3ccccc3c1)OCCCc1c(C(=O)O)n(C)c3c-2c(Cl)ccc13 [AZD5991] (first compound max 1 µM, 7x7, partner max 1 µM) | 0.452 | 1 | 0.927 | 0.772 | 0.97 | 0.581 | 0.333 | 0.978 | 0.0407 | -0.003 | -0.0503 | -0.0712 | 0.0102 | 0.0279 | 0.142 | -0.0117 | -0.0217 | -0.0108 | -0.0209 | -0.0461
COc1nnc2ccc(N3CCC(c4ccc(OCCN5CCN(C)C(=O)[C@H]5C)cc4)CC3)nn12 [AZD5153] + Cn1cnc2c(F)c(Nc3ccc(Br)cc3Cl)c(C(=O)NOCCO)cc21 [Selumetinib] (first compound max 1 µM, 7x7, partner max 10 µM) | 0.701 | 0.955 | 1 | 0.857 | 0.712 | 0.732 | 0.26 | 0.864 | -0.059 | -0.0003 | -0.0811 | 0.0093 | -0.0454 | -0.0608 | 0.0709 | 0.0017 | -0.0158 | 0.0113 | -0.0413 | -0.0008
Cc1c2c(nn1C)CSCc1cc(n(C)n1)CSc1cc(c3ccccc3c1)OCCCc1c(C(=O)O)n(C)c3c-2c(Cl)ccc13 [AZD5991] + C1CN(CCC1(C(=O)N[C@@H](CCO)C2=CC=C(C=C2)Cl)N)C3=NC=NC4=C3C=CN4 [Capivasertib] (first compound max 1 µM, 7x7, partner max 3 µM) | 0.251 | 1 | 0.729 | 0.439 | 0.529 | 0.216 | 0.273 | 1 | 0.0353 | -0.0196 | -0.0316 | -0.0326 | -0.0148 | 0.0508 | 0.0009 | -0.001 | -0.0028 | 0.0331 | -0.0461 | 0.0254
Cc1c2c(nn1C)CSCc1cc(n(C)n1)CSc1cc(c3ccccc3c1)OCCCc1c(C(=O)O)n(C)c3c-2c(Cl)ccc13 [AZD5991] + C=CCn1c(=O)c2cnc(Nc3ccc(N4CCN(C)CC4)cc3)nc2n1-c1cccc(C(C)(C)O)n1 [AZD1775] (first compound max 1 µM, partner max 1 µM) | 0.341 | 1 | 0.999 | 0.478 | 0.82 | 0.471 | 0.428 | 0.969 | -0.0124 | 0.0416 | -0.0043 | -0.0359 | 0.0066 | -0.0295 | 0.0452 | 0.0464 | 0.0092 | 0.0568 | -0.0123 | -0.0472
